Data set [1] has as its system Candida albicans. Put plainly: Antimicrobial activity against Candida albicans assessed as diameter of growth inhibition zone at 40 ug/ml by disk diffusion method. Format: functional. The note with it: read-out: DIZ.
Data set [2] has as its system Aspergillus niger. Kind of data set: Antimicrobial activity against Aspergillus niger assessed as diameter of growth inhibition zone at 40 ug/ml by disk diffusion method. It is filed as functional. Particulars: read-out: DIZ.
The subject of data set [3] is Escherichia coli. Put plainly: Antimicrobial activity against Escherichia coli isolated from infected patient assessed as diameter of growth inhibition zone at 40 ug/ml by disk diffusion method. Format: functional. Particulars: read-out: DIZ.
The subject of data set [4] is Salmonella typhi. Kind of data set: Antimicrobial activity against Salmonella enterica subsp. enterica serovar Typhi isolated from infected patient assessed as diameter of growth inhibition zone at 40 ug/ml by disk diffusion method. The note with it: read-out: DIZ. Format: functional.
Data set [5] has as its system Bacillus subtilis. Kind of data set: Antimicrobial activity against Bacillus subtilis isolated from infected patient assessed as diameter of growth inhibition zone at 40 ug/ml by disk diffusion method. It is filed as functional. Particulars: read-out: DIZ.
Data set [6] has as its system Staphylococcus aureus. Put plainly: Antimicrobial activity against Staphylococcus aureus isolated from infected patient assessed as diameter of growth inhibition zone at 40 ug/ml by disk diffusion method. Format: functional. Particulars: read-out: DIZ.
Data set [7] has as its system HepG2. Put plainly: Growth inhibition of Homo sapiens (human) HepG2 cells up to 75 ug/ml after 48 hr by MTT assay. Format: functional, cell-based.
Data set [8] deals with HepG2. Put plainly: Cytotoxicity against Homo sapiens (human) HepG2 cells assessed as inhibition of cell viability by trypan blue exclusion method. Format: functional. Particulars: read-out: LC50 (the source's name).
The test system of data set [9] is HepG2. Kind of data set: Growth inhibition of Homo sapiens (human) HepG2 cells at 100 ug/ml after 48 hr by MTT assay. Format: functional. Particulars: HepG2, 48 h, read-out: GI.
The subject of data set [10] is Goatpox virus. Put plainly: Antiviral activity against Goatpox virus infected African green monkey Vero cells assessed as inhibition of viral replication at MNTC dose incubated for 24 hr measured after 6 days. Format: functional.
In data set [11] the test system is Buffalopox virus. Put plainly: Antiviral activity against Buffalopox virus virus infected African green monkey Vero cells assessed as inhibition of viral replication at MNTC dose incubated for 24 hr measured after 4 days. It is filed as functional.
Data set [12] relates to Camelpox virus. Kind of data set: Antiviral activity against Camelpox virus infected African green monkey Vero cells assessed as inhibition of viral replication at MNTC dose incubated for 24 hr measured after 3 days. It is filed as functional.
In data set [13] the test system is Goatpox virus. Kind of data set: Antiviral activity against Goatpox virus infected African green monkey Vero cells assessed as reduction of virus titers at MNTC dose incubated for 24 hr measured after 6 days by TCID50 assay. Format: functional, organism-based.
Data set [14] deals with Buffalopox virus. Kind of data set: Antiviral activity against Buffalopox virus virus infected African green monkey Vero cells assessed as reduction of virus titers at MNTC dose incubated for 24 hr measured after 4 days by TCID50 assay. It is filed as functional, organism-based.
The subject of data set [15] is Camelpox virus. Put plainly: Antiviral activity against Camelpox virus infected African green monkey Vero cells assessed as reduction of virus titers at MNTC dose incubated for 24 hr measured after 3 days by TCID50 assay. It is filed as functional, organism-based.
Data set [16] relates to Vero. Kind of data set: Cytotoxicity against Chlorocebus aethiops (African green monkey) Vero cells assessed as change in morphological changes after 4 days by inverted microscopic analysis. Format: cell-based. Particulars: chlorocebus sabaeus, 96 h.
Data set [17] has as its system Radical scavenging activity. Put plainly: Antioxidant activity assessed as DPPH radical scavenging activity at 15 ug/ml after 30 min by spectrophotometric analysis. It is filed as functional.
Data set [18] deals with Candida albicans. Put plainly: Antimicrobial activity against Candida albicans assessed as growth inhibition by disk diffusion method. It is filed as functional.
The test system of data set [19] is Aspergillus niger. Kind of data set: Antimicrobial activity against Aspergillus niger assessed as growth inhibition by disk diffusion method. Format: functional.
Data set [20] relates to Escherichia coli. Put plainly: Antimicrobial activity against Escherichia coli isolated from infected patient assessed as growth inhibition by disk diffusion method. It is filed as functional.
The subject of data set [21] is Salmonella typhi. Kind of data set: Antimicrobial activity against Salmonella enterica subsp. enterica serovar Typhi isolated from infected patient assessed as growth inhibition by disk diffusion method. It is filed as functional.
Data set [22] deals with Bacillus subtilis. Kind of data set: Antimicrobial activity against Bacillus subtilis isolated from infected patient assessed as growth inhibition by disk diffusion method. Format: functional.
Data set [23] has as its system Staphylococcus aureus. Put plainly: Antimicrobial activity against Staphylococcus aureus isolated from infected patient assessed as growth inhibition by disk diffusion method. It is filed as functional.
In data set [24] the test system is HepG2. Put plainly: Growth inhibition of Homo sapiens (human) HepG2 cells at 25 to 100 ug/ml after 48 hr by MTT assay. Format: functional, cell-based.

SMILES strings stand for the structures. Converted amounts (≈) assume the structure as drawn. The source made the active and inactive calls. The calls are words filed in the database; no cut-off is given here.

The record followed here is ChEMBL document CHEMBL3046235, “In vitro biological activities of new heterocyclic chalcone derivatives” (Med Chem Res, 2013).

Consider `Cc1cc(C(=O)/C=C/c2ccc(-c3ccccc3)cc2)c(C)o1`, for which the zone of inhibition at 40 µg/mL was determined as 23 mm in data set [1]; 23 mm in data set [2]; 23 mm in [3]; 22 mm in data set [4]; 24 mm in data set [5]; 16 mm in data set [6]. The “growth inhibition (GI)” value in data set [7] is “Active”. Besides, the CC50 in data set [8] came to 92 µg/mL (≈ 304 µM). In addition, in data set [9], the inhibition of growth at 100 µg/mL was 67%. The “inhibition (INH)” value in data set [10], in [11] and in [12] was 0% throughout. For the same compound, the inhibition entry in data set [13], in data set [14] and in data set [15] was “inactive” each time. Besides, the MNTD in [16] worked out at 4.68 µg. For the same compound, the Activity in data set [17] came to 31%. Moreover, the MIC in [18] is 20 µg/mL (≈ 66.1 µM); in [19] it was 20 µg/mL (≈ 66.1 µM); in data set [20], 20 µg/mL (≈ 66.1 µM); in data set [21], 30 µg/mL (≈ 99.2 µM); in [22], 30 µg/mL (≈ 99.2 µM); in data set [23], 20 µg/mL (≈ 66.1 µM).

Regarding `O=C(/C=C/c1ccc(-c2ccccc2)cc1)c1ccsc1`, the zone of inhibition at 40 µg/mL came out at 30 mm in data set [1]; 24 mm in data set [2]; 22 mm in data set [3]; 15 mm in data set [4]; 18 mm in data set [5]; 17 mm in data set [6]. Also, the “growth inhibition (GI)” value in data set [24] is “Active”. Further, in data set [8], the CC50 turned out to be 13 µg/mL (≈ 44.8 µM). In addition, the “inhibition (INH)” value in data set [10], in [11] and in [12] was 0% in each case. Moreover, the inhibition entry in [13], in data set [14] and in [15] was “inactive” in each case. In addition, the MNTD in [16] amounted to 7.8 µg. Also, the Activity in data set [17] is 31%. The MIC in [18] amounted to 30 µg/mL (≈ 103 µM); in data set [19], 40 µg/mL (≈ 138 µM); in data set [20], 30 µg/mL (≈ 103 µM); in data set [21], 30 µg/mL (≈ 103 µM); in data set [22], 30 µg/mL (≈ 103 µM); in [23], 30 µg/mL (≈ 103 µM).
